Results as given in PubChem BioAssay (NCI).
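Following 48 hours of exposure in 96-well plates, responses at five concentrations were used to interpolate endpoints linearly. GI50: concentration for 50% inhibition of growth. The concentration for full growth arrest is given as TGI.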

Assays:
Assay in all cases: NCI-60 cell line screen, 48 h
SK-OV-3 ovarian = tested on: SK-OV-3 ovarian
RXF 393 renal = tested on: RXF 393 renal
SNB-75 CNS = tested on: SNB-75 CNS
NCI-H226 lung = tested on: NCI-H226 lung
EKVX NSCLC = tested on: EKVX NSCLC
UACC-257 melanoma = tested on: UACC-257 melanoma
PC-3 prostate = tested on: PC-3 prostate
MALME-3M melanoma = tested on: MALME-3M melanoma
COLO 205 colon = tested on: COLO 205 colon
DU-145 prostate = tested on: DU-145 prostate
SK-MEL-5 melanoma = tested on: SK-MEL-5 melanoma
HOP-92 NSCLC = tested on: HOP-92 NSCLC
HCC-2998 colon = tested on: HCC-2998 colon
BT-549 breast = tested on: BT-549 breast
MOLT-4 leukemia = tested on: MOLT-4 leukemia
OVCAR-4 ovarian = tested on: OVCAR-4 ovarian
SF-268 CNS = tested on: SF-268 CNS
UO-31 renal = tested on: UO-31 renal
SF-539 CNS = tested on: SF-539 CNS
TK-10 renal = tested on: TK-10 renal
SR leukemia = tested on: SR leukemia
A549 NSCLC = tested on: A549 NSCLC
OVCAR-8 ovarian = tested on: OVCAR-8 ovarian
MDA-MB-435 = tested on: MDA-MB-435
OVCAR-3 ovarian = tested on: OVCAR-3 ovarian
SN12C renal = tested on: SN12C renal
MCF7 breast = tested on: MCF7 breast
SK-MEL-28 melanoma = tested on: SK-MEL-28 melanoma
MDA-MB-231 breast = tested on: MDA-MB-231 breast
KM12 colon = tested on: KM12 colon
786-0 renal = tested on: 786-0 renal
HCT-116 colon = tested on: HCT-116 colon
NCI/ADR-RES ovarian = tested on: NCI/ADR-RES ovarian
U251 CNS = tested on: U251 CNS
M14 melanoma = tested on: M14 melanoma
SF-295 CNS = tested on: SF-295 CNS
HL-60(TB) leukemia = tested on: HL-60(TB) leukemia
RPMI-8226 leukemia = tested on: RPMI-8226 leukemia
ACHN renal = tested on: ACHN renal
IGROV1 ovarian = tested on: IGROV1 ovarian
LOX IMVI melanoma = tested on: LOX IMVI melanoma
SNB-19 CNS = tested on: SNB-19 CNS
SK-MEL-2 melanoma = tested on: SK-MEL-2 melanoma
A498 renal = tested on: A498 renal
OVCAR-5 ovarian = tested on: OVCAR-5 ovarian
K-562 leukemia = tested on: K-562 leukemia
NCI-H522 lung = tested on: NCI-H522 lung
HOP-62 NSCLC = tested on: HOP-62 NSCLC
HT29 colon = tested on: HT29 colon
SW-620 colon = tested on: SW-620 colon
T-47D breast = tested on: T-47D breast
NCI-H460 lung = tested on: NCI-H460 lung
UACC-62 melanoma = tested on: UACC-62 melanoma
CAKI-1 renal = tested on: CAKI-1 renal
HS 578T breast = tested on: HS 578T breast
HCT-15 colon = tested on: HCT-15 colon
CCRF-CEM leukemia = tested on: CCRF-CEM leukemia
NCI-H23 lung = tested on: NCI-H23 lung

## COC(=O)N1c2ccc3c(nc(Cc4ccccc4)n3[C@H]3CCC[C@H](C(=O)O)C3)c2CC[C@@H]1C
SK-OV-3 ovarian
  GI50: 16.9 µM
  TGI: > 100 µM
RXF 393 renal
  GI50: 12.2 µM
  TGI: 91.1 µM
SNB-75 CNS
  GI50: 431 nM
  TGI: > 100000 nM
NCI-H226 lung
  GI50: 14.1 µM
  TGI: > 100000 nM
EKVX NSCLC
  GI50: 17.9 µM
  TGI: > 100000 nM
UACC-257 melanoma
  GI50: 14.6 µM
  TGI: > 100000 nM
PC-3 prostate
  GI50: 5680 nM
  TGI: > 100000 nM
MALME-3M melanoma
  GI50: 6.13 µM
  TGI: > 100000 nM
COLO 205 colon
  GI50: 4.95 µM
  TGI: > 100 µM
DU-145 prostate
  GI50: 93.6 µM
  TGI: > 100 µM
SK-MEL-5 melanoma
  GI50: 10.2 µM
  TGI: > 100000 nM
HOP-92 NSCLC
  GI50: 1620 nM
  TGI: 11.8 µM
HCC-2998 colon
  GI50: 8.36 µM
  TGI: 27.1 µM
BT-549 breast
  GI50: 48.5 µM
  TGI: > 100000 nM
MOLT-4 leukemia
  GI50: 14.3 µM
  TGI: > 100000 nM
OVCAR-4 ovarian
  GI50: 6.84 µM
  TGI: > 100000 nM
SF-268 CNS
  GI50: 27.7 µM
  TGI: > 100000 nM
UO-31 renal
  GI50: 2870 nM
  TGI: > 100000 nM
SF-539 CNS
  GI50: 15.7 µM
  TGI: > 100000 nM
TK-10 renal
  GI50: 5.7 µM
  TGI: > 100000 nM
SR leukemia
  GI50: 13.8 µM
  TGI: > 100 µM
A549 NSCLC
  GI50: 27.6 µM
  TGI: > 100 µM
OVCAR-8 ovarian
  GI50: 28.2 µM
  TGI: > 100 µM
MDA-MB-435
  GI50: 8.59 µM
  TGI: > 100000 nM
OVCAR-3 ovarian
  GI50: 13.3 µM
  TGI: > 100000 nM
SN12C renal
  GI50: 17.3 µM
  TGI: > 100000 nM
MCF7 breast
  GI50: 115 nM
  TGI: > 100000 nM
SK-MEL-28 melanoma
  GI50: 13.2 µM
  TGI: > 100000 nM
MDA-MB-231 breast
  GI50: 15.8 µM
  TGI: > 100000 nM
KM12 colon
  GI50: 16.4 µM
  TGI: > 100000 nM
786-0 renal
  GI50: 5670 nM
  TGI: > 100000 nM
HCT-116 colon
  GI50: 17.6 µM
  TGI: > 100000 nM
NCI/ADR-RES ovarian
  GI50: 65.2 µM
  TGI: > 100000 nM
U251 CNS
  GI50: 17.1 µM
  TGI: > 100 µM
M14 melanoma
  GI50: 5.86 µM
  TGI: > 100 µM
SF-295 CNS
  GI50: 11.7 µM
  TGI: > 100000 nM
HL-60(TB) leukemia
  GI50: 3180 nM
  TGI: > 100000 nM
RPMI-8226 leukemia
  GI50: 3840 nM
  TGI: 80.9 µM
ACHN renal
  GI50: 17.2 µM
  TGI: > 100000 nM
IGROV1 ovarian
  GI50: 20.8 µM
  TGI: > 100000 nM
LOX IMVI melanoma
  GI50: 1030 nM
  TGI: 30.2 µM
SNB-19 CNS
  GI50: 12.6 µM
  TGI: > 100 µM
SK-MEL-2 melanoma
  GI50: 34.3 µM
  TGI: > 100000 nM
A498 renal
  GI50: 12.4 µM
  TGI: 52.7 µM
OVCAR-5 ovarian
  GI50: 30.9 µM
  TGI: > 100000 nM
K-562 leukemia
  GI50: 5030 nM
  TGI: > 100000 nM
NCI-H522 lung
  GI50: 11.3 µM
  TGI: > 100000 nM
HOP-62 NSCLC
  GI50: 11.3 µM
  TGI: > 100 µM
HT29 colon
  GI50: 5440 nM
  TGI: > 100 µM
SW-620 colon
  GI50: 46.4 µM
  TGI: > 100000 nM
T-47D breast
  GI50: 3170 nM
  TGI: > 100000 nM
NCI-H460 lung
  GI50: 23.4 µM
  TGI: > 100 µM
UACC-62 melanoma
  GI50: 2080 nM
  TGI: > 100000 nM
CAKI-1 renal
  GI50: 1810 nM
  TGI: > 100000 nM
HS 578T breast
  GI50: 3250 nM
  TGI: > 100 µM
HCT-15 colon
  GI50: 16.2 µM
  TGI: > 100000 nM
CCRF-CEM leukemia
  GI50: 6.55 µM
  TGI: > 100000 nM

## CCCCCC/C=C\CCCCCCCCCc1cc(O)cc(OC)c1O
SK-OV-3 ovarian
  GI50: 0.402 µM
  TGI: 11.6 µM
RXF 393 renal
  GI50: 0.32 µM
  TGI: 1.38 µM
SNB-75 CNS
  GI50: 317 nM
  TGI: 1440 nM
NCI-H226 lung
  GI50: 0.37 µM
  TGI: 1490 nM
EKVX NSCLC
  GI50: 0.335 µM
  TGI: 1740 nM
UACC-257 melanoma
  GI50: 0.474 µM
  TGI: 2920 nM
PC-3 prostate
  GI50: 308 nM
  TGI: 1540 nM
MALME-3M melanoma
  GI50: 0.444 µM
  TGI: 2140 nM
DU-145 prostate
  GI50: 0.575 µM
  TGI: 15.2 µM
SK-MEL-5 melanoma
  GI50: 0.329 µM
  TGI: 1180 nM
HOP-92 NSCLC
  GI50: 234 nM
  TGI: 0.767 µM
HCC-2998 colon
  GI50: 0.633 µM
  TGI: 4.34 µM
BT-549 breast
  GI50: 0.375 µM
  TGI: 1450 nM
MOLT-4 leukemia
  GI50: 0.333 µM
  TGI: 1860 nM
OVCAR-4 ovarian
  GI50: 0.389 µM
  TGI: 1690 nM
SF-268 CNS
  GI50: 0.441 µM
  TGI: 1690 nM
UO-31 renal
  GI50: 321 nM
  TGI: 1220 nM
SF-539 CNS
  GI50: 0.377 µM
  TGI: 1510 nM
TK-10 renal
  GI50: 0.664 µM
  TGI: 2650 nM
SR leukemia
  GI50: 0.344 µM
  TGI: 3.26 µM
A549 NSCLC
  GI50: 0.406 µM
  TGI: 14.6 µM
OVCAR-8 ovarian
  GI50: 0.307 µM
  TGI: 6.5 µM
MDA-MB-435
  GI50: 0.363 µM
  TGI: 1960 nM
OVCAR-3 ovarian
  GI50: 0.401 µM
  TGI: 1430 nM
SN12C renal
  GI50: 0.31 µM
  TGI: 1500 nM
MCF7 breast
  GI50: 292 nM
  TGI: 2490 nM
SK-MEL-28 melanoma
  GI50: 0.653 µM
  TGI: 2340 nM
MDA-MB-231 breast
  GI50: 0.308 µM
  TGI: 978 nM
KM12 colon
  GI50: 0.388 µM
  TGI: 2300 nM
786-0 renal
  GI50: 316 nM
  TGI: 1570 nM
HCT-116 colon
  GI50: 0.33 µM
  TGI: 1250 nM
NCI/ADR-RES ovarian
  GI50: 0.311 µM
  TGI: 1270 nM
M14 melanoma
  GI50: 0.403 µM
  TGI: 3.65 µM
SF-295 CNS
  GI50: 0.304 µM
  TGI: 1370 nM
HL-60(TB) leukemia
  GI50: 272 nM
  TGI: 717 nM
RPMI-8226 leukemia
  GI50: 219 nM
ACHN renal
  GI50: 0.318 µM
  TGI: 1210 nM
IGROV1 ovarian
  GI50: 0.433 µM
  TGI: 1640 nM
LOX IMVI melanoma
  GI50: 339 nM
  TGI: 1.21 µM
SNB-19 CNS
  GI50: 0.347 µM
  TGI: 10.3 µM
SK-MEL-2 melanoma
  GI50: 0.494 µM
  TGI: 2410 nM
A498 renal
  GI50: 0.33 µM
  TGI: 2.07 µM
OVCAR-5 ovarian
  GI50: 0.402 µM
  TGI: 2410 nM
K-562 leukemia
  GI50: 298 nM
  TGI: 2080 nM
NCI-H522 lung
  GI50: 0.321 µM
  TGI: 1220 nM
HT29 colon
  GI50: 353 nM
  TGI: 6.93 µM
SW-620 colon
  GI50: 0.371 µM
  TGI: 1810 nM
T-47D breast
  GI50: 349 nM
  TGI: 1930 nM
NCI-H460 lung
  GI50: 0.323 µM
  TGI: 10.1 µM
UACC-62 melanoma
  GI50: 396 nM
  TGI: 1950 nM
CAKI-1 renal
  GI50: 497 nM
  TGI: 1820 nM
NCI-H23 lung
  GI50: 348 nM
  TGI: 1290 nM
HS 578T breast
  GI50: 599 nM
  TGI: 5.18 µM
HCT-15 colon
  GI50: 0.285 µM
  TGI: 1320 nM
CCRF-CEM leukemia
  GI50: 0.219 µM
  TGI: 1290 nM
